The values that follow come from patent publication US10426768B2, “Subcutaneous delivery of polymer conjugates of therapeutic agents” (Serina Therapeutics, Inc., priority 2011, dated 2019).

Where two headings read alike, the source gives them in different places.

As a reminder, the half-life is how long it takes for the measured level to halve.

The conditions of data set [1]: oral; cited from earlier work.
Data set [2] can be described thus: Pharmacokinetics of rotigotine in rat after intravenous and subcutaneous administration of POZ conjugates. Type of data set: in vivo, male Sprague-Dawley rats. The conditions noted are these: for PK profile of plasma rotigotine, in words / Cmax values of plasma rotigotine: rat; for PK profile of plasma rotigotine, in words: SC compared with IV; for Cmax values of plasma rotigotine: at 12 hours, dosed SC at 1.6 mg/kg. The protocol: In order to study the pharmacokinetics of the POZ conjugates described herein, in vivo studies were conducted with male Sprague-Dawley rats. Twenty-seven male cannulated Sprague-Dawley rats (300-350 g) were divided into nine groups of 3 animals per group. Groups I-II received a single subcutaneous (SC) dose (right flank) of POZ acetyl rotigotine (as described in Example 6) at equivalent doses of 1.6 and 6.4 mg/kg. […] Group V received a single subcutaneous (SC) dose (right flank) of rotigotine hydrochloride at an equivalent dose of 0.5 mg/kg. Groups VI-VII received a single intravenous (IV) dose (lateral tail vein) of POZ acetyl rotigotine (as described in Example 6) at equivalent doses of 0.5 and 2.0 mg/kg. […] The test articles were dissolved in 5% dextrose injection and filtered prior to each injection. Serial blood samples were obtained from each intravenously dosed animal through the cannulated catheter, at time intervals of end of injection, 12, 24, 48, 96 and 168 hours. The time intervals for the subcutaneously dosed animals were 6, 12, 24, 48, 96 and 168 hours. The blood was processed to collect the plasma which was stored at −70° C. before analysis. The plasma samples were extracted with acetonitrile using d3-rotigotine as an internal standard and the analytes in the extract were assayed by chromatographic analysis on LC/MS-MS system using a C-18 reverse phase column with 0.9 um silica coreshell (Accucore™, Thermo Scientific, 30×2.1 mm ID and 2.6 micron particle size). The mobile phase was ammonium formate 10 mM pH3.0 (solvent A); and 90% acetonitrile, 10% methanol, and 0.1% formic acid (solvent B), eluting at 0.6 mL/min.

Data set [3] deals with 6-OHDA Rat Model. The data set is described as follows: Rotational test in the 6-OHDA rat model, single subcutaneous dose. Type of data set: in vivo, female Sprague-Dawley rats. The method, then: (§1) In order to study the efficacy of the POZ conjugates described herein, in vivo studies were conducted with female Sprague-Dawley rats. Female Sprague-Dawley rats (275-350 g) were used in the study. Each animal underwent stereotaxic surgery and received a unilateral lesion of the right nigrostriatal pathway via injection of 12.5 μg of 6-hydroxydopamine (6-OHDA) into a single site in the medial forebrain bundle. Rats were monitored over two weeks and underwent behavioral assessment (on day −7) via the cylinder test. Animals lacking overt behavioral asymmetry ([…] ipsilateral forelimb use) were excluded from the study. The rats were them randomly assigned to one of six treatment groups (each N=8). […] The rats received a single subcutaneous dose (2 mL/kg) of vehicle (5% dextrose) or test compound dissolved in 5% dextrose.
(§2) Each group of animals (A-F as described above) were independently assessed rat for rotational behavior and forelimb symmetry on day 1, day 2, day 5 and day 9. In the rotational test, the animals were placed in an automated rotometer apparatus (MedAssociates, USA) and the net number of rotations contraversive to the lesion were recorded over a period of 6 hours on each day. In the forelimb symmetry test, the rats are placed in a clear glass cylinder without top (15 cm diameter×45 cm tall). The number of times each paw touches the side of the cylinder during an individual rear is recorded over a 10 minute observation on each day. The first limb in any rear to touch the wall is scored a single point. If both limbs contact within 0.4 s of each other, then this is scored as a ‘both’. All subsequent exploratory movements about the wall using that limb are scored independently until the other limb contacts the wall with weight support. Alternating stepping motions involving both paws one after the other receive a single score for both. The net number of contralateral touches are calculated and considered a favorable response.

For data set [4], the system named is 6-OHDA Rat Model. Put plainly: Forelimb asymmetry (cylinder) test in the 6-OHDA rat model, single subcutaneous dose. Format: in vivo, female Sprague-Dawley rats. The method, then:
as §1, §2

The conditions of data set [5]: rats; cited from earlier work.
For data set [6] the following is noted: man; cited from earlier work.
A short description of data set [7]: Pharmacokinetics of rotigotine in monkey after subcutaneous administration of POZ conjugates. Format: in vivo, female macaques (Cynomolgus monkeys). The conditions noted are these: for average terminal plasma half-life (t½) of rotigotine: one subcutaneous dose, 1.5 or 4.5 mg/kg rotigotine equivalents. The protocol:
The pharmacokinetics of the POZ conjugates of rotigotine was measured in normal, treatment-naïve female macaques. Animals were randomly assigned into four treatment groups, each N=3. […] The test articles were dissolved in 5% dextrose injection and filtered prior to each injection. Serial venous blood samples were obtained from each animal prior to administration of experimental agents on Day 1 and subsequently at 15 min, 30 min, 1 h, 2 h, 4 h, 6 h, 8 h, 24 h, 48 h, 96 h, 192 h, 240 h and 336 h. The blood was processed to collect the plasma which was stored at −70° C. before analysis. These plasma samples were processed and assayed by chromatographic analysis on LC/MS-MS system as described in Example 31.

A short description of data set [8]: Water solubility of the produced polyoxazoline conjugate. Format: physicochemical.

Turning to `N[C@@H](Cc1ccc(O)c(O)c1)C(=O)O` [levodopa], the bioavailability entry in data set [1] is “less than 10%”.

Consider `CCCN(CCc1cccs1)[C@H]1CCc2c(O)cccc2C1` [Rotigotine, S(−)-2-(N-propyl-N-2-thienylethylamino)-5-hydroxytetralin, reference compound], for which the half-life is 2.8 h in data set [2] (male, Sprague-Dawley, subcutaneous, 0.5 mg/kg, rat plasma, IV or SC dosing, read-out: terminal plasma half-life (t½) of rotigotine (converted)) and 2.5 h in data set [6]. In addition, the “Net number of contraversive turns/6 h period (Average ± SEM; n = 8)” value (from here on “Net number … (Average ± SEM; n = 8)”) in the data set with 6-OHDA Rat Model [3] (0.5 mg/kg SC, Day 1) is 983 ± 405 turns/6 h period; in the data set with 6-OHDA Rat Model [3] (0.5 mg/kg SC, Day 5), −49 ± 9 turns/6 h period; in the data set on 6-OHDA Rat Model [3] (3.0 mg/kg SC, Day 1), 1570 ± 312 turns/6 h period; in the data set with 6-OHDA Rat Model [3] (3.0 mg/kg SC, Day 5) it was −39 ± 15 turns/6 h period. Moreover, the “Net ipsiversive forelimb use as a percentage of total forelimb use (Average ± SEM; n = 8)” value in the data set on 6-OHDA Rat Model [4] (0.5 mg/kg SC, Day 2) was determined as 60 ± 13%; in the data set on 6-OHDA Rat Model [4] (0.5 mg/kg SC, Day 5), 94 ± 6%; with 6-OHDA Rat Model [4] (3.0 mg/kg SC, Day 2) it was 9 ± 13%; in the data set with 6-OHDA Rat Model [4] (3.0 mg/kg SC, Day 5) it was 85 ± 8%. Moreover, in data set [5], the “oral and intraperitoneal bioavailability” value is “less than 10%”.

Turning to “H-[(α-Methyl-Acetyl-Rotigotine)10(EOZ)190]—COOH 20K [POZ alpha methyl acetyl rotigotine]”, the “average terminal plasma half-life (t½) of rotigotine” value in data set [7] worked out at 9 h. For the same compound, the “water solubility, in words” value in data set [8] is given as “good water solubility”.

Consider “H-[(Acetyl-Rotigotine)10(EOZ)190]—COOH 20K [POZ acetyl rotigotine]”, for which, in data set [2] (rat plasma, IV or SC dosing), the “terminal plasma half-life (t½) of rotigotine” value was 16 h. Besides, the “PK profile of plasma rotigotine, in words” value in data set [2] is listed as “essentially the same PK profile when delivered either SC or IV”. Further, the “Cmax values of plasma rotigotine” value in data set [2] came to 48 ng/mL. The “Net number … (Average ± SEM; n = 8)” value is given as 872 ± 232 turns/6 h period with 6-OHDA Rat Model [3] (1.6 mg/kg SC, Day 1) and −14 ± 14 turns/6 h period in the data set on 6-OHDA Rat Model [3] (1.6 mg/kg SC, Day 5). The “Net ipsiversive forelimb use as a percentage of total forelimb use (Average ± SEM; n = 8)” value with 6-OHDA Rat Model [4] (1.6 mg/kg SC, Day 2) came to 50 ± 13%; in the data set on 6-OHDA Rat Model [4] (1.6 mg/kg SC, Day 5), 85 ± 10%. Moreover, in data set [8], the “water solubility, in words” value is “good water solubility”.

On to “H-[(Propionyl-Rotigotine)10(EOZ)190]—COOH 20K [POZ propyl rotigotine]”, for which the “terminal plasma half-life (t½) of rotigotine” value in data set [2] (rat plasma, IV or SC dosing) is on record as 60 h. Also, the “PK profile of plasma rotigotine, in words” value in data set [2] and in data set [7] (subcutaneous) was “markedly prolonged PK profile that is near “zero order” kinetics” in each case. Besides, the “Cmax values of plasma rotigotine” value in data set [2] was 6 ng/mL. The “average terminal plasma half-life (t½) of rotigotine” value in data set [7] was 60 h. Moreover, the “Net number … (Average ± SEM; n = 8)” value in the data set with 6-OHDA Rat Model [3] (1.6 mg/kg SC, Day 1) stood at 1408 ± 286 turns/6 h period; in the data set on 6-OHDA Rat Model [3] (1.6 mg/kg SC, Day 5), 68 ± 60 turns/6 h period; in the data set with 6-OHDA Rat Model [3] (6.4 mg/kg SC, Day 1), 1272 ± 405 turns/6 h period; in the data set on 6-OHDA Rat Model [3] (6.4 mg/kg SC, Day 5) it was 5142 ± 777 turns/6 h period. Moreover, the “rotational activity, in words” value with 6-OHDA Rat Model [3] (day 5, high dose of 6.4 mg/kg) was “marked and continuous contraversive rotations”. Besides, the “Net ipsiversive forelimb use as a percentage of total forelimb use (Average ± SEM; n = 8)” value in the data set with 6-OHDA Rat Model [4] (1.6 mg/kg SC, Day 2) was 0 ± 14%; in the data set on 6-OHDA Rat Model [4] (1.6 mg/kg SC, Day 5) it was 31 ± 13%; with 6-OHDA Rat Model [4] (6.4 mg/kg SC, Day 2), −2 ± 26%; in the data set on 6-OHDA Rat Model [4] (6.4 mg/kg SC, Day 5), −6 ± 16%. In addition, in the data set on 6-OHDA Rat Model [4] (day 5, both doses of 1.6 and 6.4 mg/kg), the “forelimb use activity, in words” value is “marked and continuous ipsiversive forelimb use”. The “water solubility, in words” value in data set [8] is recorded as “good water solubility”.
